According to patent publication US4110327A, “2,3 Diketo-piperazinocarbonylamino alkanoic acids and derivatives” (Toyama Chemical Co., Ltd., priority 1974, dated 1978):
Values after ≈ are worked out from the molar mass of the structure shown.

What was measured:
[1] = test system: β-lactamase; assay: Resistant activity against β-lactamase, iodometric assay; assay type: biochemical, Pseudomonas aeruginosa GN 238; conditions: relative to Potassium Penicillin G = 100
Method: (3) Resistant activity against β-lactamase, Pseudomonas aergionan GN 238:
The resistant activity of each compound against β-lactamase was measured in the manner described below.
β-Lactamase was prepared from Pseudomonas aeruginosa GN 238. This microorganism was cultured in 100 ml of a medium containing 2 g of yeast extract, 10 g of polypeptone, 2 g of glucose, 7 g of disodium hydrogen phosphate, 2 g of potassium dihydrogen phosphate, 1.2 g of ammonium sulfate and 0.4 g of magnesium sulfate, per liter, in a 500-ml Erlenmeyer flask for 6 hrs. at 37° C with shaking. The resulting cells were collected by centrifugation (5,000 r.p.m. × 10 min.), washed three times with 0.1 M phosphate buffer (pH 7.0). Subsequently, the cells were subjected to sonication (20 KHz, 20 min.) and then centrifuged at 15,000 r.p.m. for 60 min. By using the supernatant of enzyme fluid, the resistance of each compound against β-lactamase was determined by the iodometric assay method. Each numeral shown in Table 7 is a relative activity value calculated by assuming as 100 the activity of the control Potassium Penicillin G.

[2] = test system: Salmonella typhi-murium; assay: MIC against clinical isolates; assay type: cell-based; conditions: unit assumed
[3] = test system: Proteus morganii; assay: MIC against clinical isolates; assay type: cell-based; conditions: clinical isolate, unit assumed
[4] = test system: Shigella flexneri; assay: MIC against clinical isolates; assay type: cell-based; conditions: unit assumed
Method: (§1) The minimum inhibitory concentrations (MIC) was determined by the plate method disclosed in "Chemotherapy" (Japan), Vol. 16, (1968), pages 98 - 99. The culture medium used was a Heart infusion agar (pH 7.4). The number of the cells per plate used in the inoculum as 10^4 (10^6 cells/ml).
(§2) MIC was determined in the same manner as in the preceding paragraph (1).

[5] = test system: Shigella sonnei; assay: MIC against clinical isolates; assay type: cell-based; conditions: unit assumed
Method: as §1, §2

[6] = test system: Salmonella typhi; assay: MIC against clinical isolates; assay type: cell-based; conditions: unit assumed
[7] = test system: Escherichia coli; assay: MIC against clinical isolates; assay type: cell-based; conditions: unit assumed
[8] = test system: Klebsiella pneumoniae; assay: MIC against standard strain, plate method; assay type: cell-based; conditions: unit assumed
Summary of the method: (§3)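 Agar plate dilution MIC in heart infusion agar, pH 7.4. Inoculum was 10^4 cells per plate, from a suspension of 10^6 cells/ml.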

[9] = test system: Escherichia coli NIHJ; assay: MIC against standard strain, plate method; assay type: cell-based; conditions: unit assumed
Summary of the method: as §3

[10] = test system: Pseudomonas aeruginosa I.F.O.; assay: MIC against standard strain, plate method; assay type: cell-based; conditions: unit assumed
Summary of the method: as §3

[11] = test system: Proteus vulgaris 3027; assay: MIC against standard strain, plate method; assay type: cell-based; conditions: Proteus vulgaris 3027, standard strain; unit assumed
Summary of the method: as §3

[12] = test system: Staphylococcus aureus 209p; assay: MIC against standard strain, plate method; assay type: cell-based; conditions: unit assumed
Summary of the method: as §3

[13] = test system: Proteus mirabilis; assay: MIC against clinical isolates; assay type: cell-based; conditions: clinical isolate, unit assumed
[14] = test system: Klebsiella pneumoniae; assay: MIC against clinical isolates; assay type: cell-based; conditions: unit assumed
[15] = test system: Pseudomonas aeruginosa; assay: MIC against clinical isolates; assay type: cell-based; conditions: unit assumed
[16] = test system: Proteus vulgaris; assay: MIC against clinical isolates; assay type: cell-based; conditions: clinical isolate, unit assumed
[17] = test system: Staphylococcus aureus; assay: MIC against clinical isolates; assay type: cell-based; conditions: unit assumed
[18] = test system: Proteus rettgeri; assay: MIC against clinical isolates; assay type: cell-based; conditions: clinical isolate, unit assumed
[19] = clinical isolate GN (number not given; Table 5-3)

`CC1(C)S[C@@H]2[C@H](NC(=O)Cc3ccccc3)C(=O)N2[C@H]1C(=O)O` [Potassium Penicillin G, reference compound] was tested, and the Relative activity [1] was 100%.

For `CC1(C)S[C@@H]2[C@H](NC(=O)[C@H](N)c3ccccc3)C(=O)N2[C@H]1C(=O)O` [Sodium Ampicillin, SodiumAmpicillin, reference compound], the MIC ([2]; clinical isolate SL 858) was 3.13 µg/mL, the MIC ([2]; clinical isolate SL 2136) was > 200 µg/mL and the MIC [3] was < 1.57 µg/mL. The MIC ([4]; clinical isolate JS 11839) was 1.57 µg/mL, the MIC ([5]; clinical isolate JS 11232) was > 200 µg/mL and the MIC ([5]; clinical isolate JS 11755) was 6.25 µg/mL. The MIC ([6]; clinical isolate SL 819) was 1.56 µg/mL, the MIC ([6]; clinical isolate SL 2169) was 0.78 µg/mL and the MIC ([7]; clinical isolate GN 3452) was 6.25 µg/mL. The MIC ([7]; clinical isolate GN 3481) was 6.25 µg/mL, the MIC ([7]; clinical isolate GN 3611) was > 200 µg/mL and the MIC ([7]; clinical isolate K-1) was 6.25 µg/mL. For the same compound, the MIC ([7]; clinical isolate K-2) was 6.25 µg/mL, the MIC ([7]; clinical isolate K-3) was > 200 µg/mL and the MIC [8] was 50 µg/mL. For the same compound, the MIC [9] was < 1.57 µg/mL, the MIC [10] was > 200 µg/mL and the MIC [11] was > 200 µg/mL. For the same compound, the MIC [12] was < 1.57 µg/mL, the MIC [13] was < 1.57 µg/mL and the MIC ([14]; clinical isolate GN 917) was 25 µg/mL. The MIC ([14]; clinical isolate GN 3850) was 50 µg/mL, the MIC ([14]; clinical isolate GN 4081) was > 200 µg/mL and the MIC ([14]; clinical isolate GN 4117) was > 200 µg/mL. For the same compound, the MIC ([15]; clinical isolate GN 82) was > 200 µg/mL, the MIC ([15]; clinical isolate GN 163) was > 200 µg/mL and the MIC ([15]; clinical isolate GN 221) was > 200 µg/mL. The MIC ([15]; clinical isolate GN 376) was > 200 µg/mL, the MIC ([15]; clinical isolate GN 383) was > 200 µg/mL and the MIC ([15]; clinical isolate GN 1035) was > 200 µg/mL. The MIC ([15]; clinical isolate GN 1091) was > 200 µg/mL, the MIC ([15]; clinical isolate GN 2565) was > 200 µg/mL and the MIC ([15]; clinical isolate GN 2987) was > 200 µg/mL. For the same compound, the MIC [15, 19] was > 200 µg/mL, the MIC ([15]; clinical isolate S-1) was > 200 µg/mL and the MIC ([15]; clinical isolate S-2) was > 200 µg/mL. For the same compound, the MIC ([15]; clinical isolate S-3) was > 200 µg/mL, the MIC ([15]; clinical isolate S-4) was > 200 µg/mL and the MIC [16] was < 1.5 µg/mL. The MIC ([17]; clinical isolate F-2) was 0.79 µg/mL, the MIC ([17]; clinical isolate F-5) was 50 µg/mL and the MIC ([17]; clinical isolate MS 8588) was 6.25 µg/mL. The MIC ([17]; clinical isolate MS 8619) was < 0.4 µg/mL and the MIC [18] was 200 µg/mL.

For `CC1(C)S[C@@H]2[C@H](NC(=O)C(C(=O)O)c3ccccc3)C(=O)N2[C@H]1C(=O)O` (stereo partly shown) [Sodium Carbenicillin, SodiumCarbenicillin, reference compound], the MIC [3] was 0.4 µg/mL, the MIC ([7]; clinical isolate GN 3465) was > 200 µg/mL and the MIC ([7]; clinical isolate GN 3611) was > 200 µg/mL. For the same compound, the MIC ([7]; clinical isolate K-3) was > 200 µg/mL, the MIC [8] was > 200 µg/mL and the MIC [9] was < 1.57 µg/mL. The MIC [10] was 50 µg/mL, the MIC [11] was < 1.57 µg/mL and the MIC [12] was < 1.57 µg/mL. The MIC [13] was 0.8 µg/mL, the MIC ([14]; clinical isolate GN 917) was > 200 µg/mL and the MIC ([14]; clinical isolate GN 4081) was > 200 µg/mL. The MIC ([14]; clinical isolate GN 4117) was > 200 µg/mL, the MIC ([15]; clinical isolate GN 82) was 100 µg/mL and the MIC ([15]; clinical isolate GN 163) was 50 µg/mL. For the same compound, the MIC ([15]; clinical isolate GN 221) was 25 µg/mL, the MIC ([15]; clinical isolate GN 376) was 50 µg/mL and the MIC ([15]; clinical isolate GN 383) was 30 µg/mL. The MIC ([15]; clinical isolate GN 1035) was > 200 µg/mL, the MIC ([15]; clinical isolate GN 1091) was 100 µg/mL and the MIC ([15]; clinical isolate GN 2565) was 200 µg/mL. The MIC ([15]; clinical isolate GN 2987) was 50 µg/mL, the MIC [15, 19] was 50 µg/mL and the MIC ([15]; clinical isolate S-1) was 200 µg/mL. For the same compound, the MIC ([15]; clinical isolate S-2) was 200 µg/mL, the MIC ([15]; clinical isolate S-3) was 200 µg/mL and the MIC ([15]; clinical isolate S-4) was 200 µg/mL. For the same compound, the MIC [16] was 0.8 µg/mL, the MIC ([17]; clinical isolate F-5) was > 200 µg/mL and the MIC ([17]; clinical isolate MS 8619) was 0.79 µg/mL. For the same compound, the Relative activity [1] was 116% and the MIC [18] was > 200 µg/mL.

For `CN1CCN(C(=O)N[C@@H](C(=O)N[C@@H]2C(=O)N3[C@@H]2SC(C)(C)[C@@H]3C(=O)O)c2ccccc2)C(=O)C1=O` (single isomer, unassigned) [compound 37], the MIC ([2]; clinical isolate SL 858) was 12.5 µg/mL (≈ 24.8 µM), the MIC ([2]; clinical isolate SL 2136) was > 200 µg/mL and the MIC [3] was 0.79 µg/mL (≈ 1.57 µM). For the same compound, the MIC ([4]; clinical isolate JS 11215) was > 200 µg/mL, the MIC ([5]; clinical isolate JS 11232) was 100 µg/mL (≈ 199 µM) and the MIC ([6]; clinical isolate SL 819) was 6.25 µg/mL (≈ 12.4 µM). The MIC ([6]; clinical isolate SL 2169) was 3.13 µg/mL (≈ 6.22 µM), the MIC ([7]; clinical isolate GN 3465) was 200 µg/mL (≈ 397 µM) and the MIC ([7]; clinical isolate GN 3611) was > 200 µg/mL. The MIC ([7]; clinical isolate K-3) was > 200 µg/mL, the MIC [9] was < 1.57 µg/mL and the MIC [11] was < 1.57 µg/mL. For the same compound, the MIC [12] was < 1.57 µg/mL, the MIC [13] was 0.79 µg/mL (≈ 1.57 µM) and the MIC ([14]; clinical isolate GN 3850) was 25 µg/mL (≈ 49.6 µM). The MIC ([14]; clinical isolate GN 4081) was 200 µg/mL (≈ 397 µM), the MIC ([14]; clinical isolate GN 4117) was 100 µg/mL (≈ 199 µM) and the MIC ([15]; clinical isolate GN 383) was 25 µg/mL (≈ 49.6 µM). It also gave an MIC ([15]; clinical isolate GN 1035) of 50 µg/mL (≈ 99.3 µM), an MIC ([15]; clinical isolate GN 2565) of 25 µg/mL (≈ 49.6 µM) and an MIC ([15]; clinical isolate GN 2987) of 25 µg/mL (≈ 49.6 µM). It also gave an MIC [15, 19] of 50 µg/mL (≈ 99.3 µM), an MIC ([15]; clinical isolate S-1) of 200 µg/mL (≈ 397 µM) and an MIC ([15]; clinical isolate S-2) of 25 µg/mL (≈ 49.6 µM). The MIC ([15]; clinical isolate S-3) was 50 µg/mL (≈ 99.3 µM), the MIC ([15]; clinical isolate S-4) was 100 µg/mL (≈ 199 µM) and the MIC [16] was < 0.4 µg/mL. The MIC ([17]; clinical isolate F-2) was 1.57 µg/mL (≈ 3.12 µM), the MIC ([17]; clinical isolate F-5) was > 200 µg/mL and the MIC ([17]; clinical isolate MS 8619) was 0.79 µg/mL (≈ 1.57 µM). It also gave a Relative activity [1] of 15% and an MIC [18] of 25 µg/mL (≈ 49.6 µM).
